Laboratory results from PubChem BioAssay (NCI).
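Abbreviation: GI50, concentration required for 50% inhibition of growth. The concentration for full growth arrest is given as TGI.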

Key:
Assay in all cases: NCI anticancer screen, dose series, 384-well format
[1] = test system: HOP-92 NSCLC
[2] = test system: OVCAR-8 ovarian
[3] = test system: CCRF-CEM leukemia
[4] = test system: HOP-62 NSCLC
[5] = test system: A549 NSCLC
[6] = test system: HCT-15 colon
[7] = test system: SW-620 colon
[8] = test system: NCI-H322M lung
[9] = test system: NCI/ADR-RES ovarian
[10] = test system: MOLT-4 leukemia
[11] = test system: K-562 leukemia
[12] = test system: MALME-3M melanoma
[13] = test system: HT29 colon
[14] = test system: COLO 205 colon
[15] = test system: A498 renal
[16] = test system: OVCAR-5 ovarian
[17] = test system: SF-268 CNS
[18] = test system: NCI-H460 NSCLC
[19] = test system: OVCAR-4 ovarian
[20] = test system: OVCAR-3 ovarian
[21] = test system: KM12 colon
[22] = test system: BT-549 breast
[23] = test system: SR leukemia
[24] = test system: SNB-75 CNS
[25] = test system: SK-MEL-2 melanoma
[26] = test system: MDA-MB-468 breast
[27] = test system: 786-0 renal
[28] = test system: U251 glioblastoma
[29] = test system: SK-MEL-5 melanoma
[30] = test system: HL-60(TB) leukemia
[31] = test system: ACHN renal
[32] = test system: UO-31 renal
[33] = test system: T-47D breast
[34] = test system: SNB-19 CNS
[35] = test system: EKVX NSCLC
[36] = test system: HCC-2998 colon
[37] = test system: PC-3 prostate
[38] = test system: SK-OV-3 ovarian
[39] = test system: LOX IMVI melanoma
[40] = test system: SF-539 CNS
[41] = test system: CAKI-1 renal
[42] = test system: NCI-H522 lung
[43] = test system: HCT-116 colon
[44] = test system: SK-MEL-28 melanoma
[45] = test system: DU-145 prostate
[46] = test system: NCI-H226 lung
[47] = test system: MDA-MB-435 melanoma

Compound `Cc1ccc(-c2nc(N)nc3c2nnn3Cc2cccc(CO[C@H]3CCOC3)n2)o1` has a GI50 [1] of over 100 µM, a TGI [1] of over 100 µM and a GI50 [2] of over 100 µM. For the same compound, the TGI [2] was over 100 µM, the GI50 [3] was 72 µM and the TGI [3] was over 100 µM. The GI50 [4] was over 100 µM, the TGI [4] was over 100 µM and the GI50 [5] was over 100 µM. The TGI [5] was over 100 µM, the GI50 [6] was over 100 µM and the TGI [6] was over 100 µM. It also gave a GI50 [7] of over 100 µM, a TGI [7] of over 100 µM and a GI50 [8] of over 100 µM. It also gave a TGI [8] of over 100 µM, a GI50 [9] of over 77.1 µM and a TGI [9] of over 100 µM. The GI50 [10] was 42.2 µM, the TGI [10] was over 100 µM and the GI50 [11] was 57.5 µM. For the same compound, the TGI [11] was over 100 µM, the GI50 [12] was over 100 µM and the TGI [12] was over 100 µM. It also gave a GI50 [13] of over 100 µM, a TGI [13] of over 100 µM and a GI50 [14] of over 100 µM. It also gave a TGI [14] of over 100 µM, a GI50 [15] of over 100 µM and a TGI [15] of over 100 µM. The GI50 [16] was over 100 µM, the TGI [16] was over 100 µM and the GI50 [17] was over 100 µM. The TGI [17] was over 100 µM, the GI50 [18] was over 100 µM and the TGI [18] was over 100 µM. It also gave a GI50 [19] of over 100 µM, a TGI [19] of over 100 µM and a GI50 [20] of over 100 µM. It also gave a TGI [20] of over 100 µM, a GI50 [21] of over 100 µM and a TGI [21] of over 100 µM. It also gave a GI50 [22] of over 100 µM, a TGI [22] of over 100 µM and a GI50 [23] of over 73.2 µM. For the same compound, the TGI [23] was over 100 µM, the GI50 [24] was over 100 µM and the TGI [24] was over 100 µM. The GI50 [25] was over 100 µM, the TGI [25] was over 100 µM and the GI50 [26] was 35.5 µM. It also gave a TGI [26] of 99 µM, a GI50 [27] of over 100 µM and a TGI [27] of over 100 µM. It also gave a GI50 [28] of over 100 µM, a TGI [28] of over 100 µM and a GI50 [29] of over 53.9 µM. For the same compound, the TGI [29] was over 100 µM, the GI50 [30] was over 64.3 µM and the TGI [30] was over 100 µM. For the same compound, the GI50 [31] was over 100 µM, the TGI [31] was over 100 µM and the GI50 [32] was over 100 µM. The TGI [32] was over 100 µM, the GI50 [33] was 32.4 µM and the TGI [33] was over 100 µM. For the same compound, the GI50 [34] was over 100 µM, the TGI [34] was over 100 µM and the GI50 [35] was over 100 µM. It also gave a TGI [35] of over 100 µM, a GI50 [36] of over 100 µM and a TGI [36] of over 100 µM. It also gave a GI50 [37] of over 100 µM, a TGI [37] of over 100 µM and a GI50 [38] of over 100 µM. For the same compound, the TGI [38] was over 100 µM, the GI50 [39] was over 100 µM and the TGI [39] was over 100 µM. The GI50 [40] was over 100 µM, the TGI [40] was over 100 µM and the GI50 [41] was over 100 µM. It also gave a TGI [41] of over 100 µM, a GI50 [42] of over 100 µM and a TGI [42] of over 100 µM. For the same compound, the GI50 [43] was over 100 µM, the TGI [43] was over 100 µM and the GI50 [44] was over 100 µM. For the same compound, the TGI [44] was over 100 µM, the GI50 [45] was over 100 µM and the TGI [45] was over 100 µM. It also gave a GI50 [46] of over 100 µM, a TGI [46] of over 100 µM and a GI50 [47] of over 100 µM. The TGI [47] was over 100 µM.

Compound `Cc1cc(-c2nnc(N)nc2-c2ccc(F)cc2)cc(Cl)n1` has a GI50 [1] of over 50.9 µM, a TGI [1] of over 100 µM and a GI50 [2] of over 92.6 µM. It also gave a TGI [2] of over 100 µM, a GI50 [3] of 48.3 µM and a TGI [3] of over 100 µM. For the same compound, the GI50 [4] was over 82.1 µM, the TGI [4] was over 100 µM and the GI50 [5] was over 100 µM. The TGI [5] was over 100 µM, the GI50 [6] was over 100 µM and the TGI [6] was over 100 µM. For the same compound, the GI50 [7] was over 81.1 µM, the TGI [7] was over 100 µM and the GI50 [8] was over 100 µM. The TGI [8] was over 100 µM, the GI50 [9] was 25.3 µM and the TGI [9] was 86.3 µM. It also gave a GI50 [10] of 30.5 µM, a TGI [10] of over 90.8 µM and a GI50 [11] of 37.8 µM. For the same compound, the TGI [11] was over 100 µM, the GI50 [12] was over 100 µM and the TGI [12] was over 100 µM. It also gave a GI50 [13] of over 100 µM, a TGI [13] of over 100 µM and a GI50 [14] of over 100 µM. For the same compound, the TGI [14] was over 100 µM, the GI50 [15] was over 100 µM and the TGI [15] was over 100 µM. For the same compound, the GI50 [16] was over 100 µM, the TGI [16] was over 100 µM and the GI50 [17] was over 100 µM. The TGI [17] was over 100 µM, the GI50 [18] was over 89.7 µM and the TGI [18] was over 100 µM. For the same compound, the GI50 [19] was over 91.2 µM, the TGI [19] was over 100 µM and the GI50 [20] was over 81.9 µM. It also gave a TGI [20] of over 100 µM, a GI50 [21] of over 87.1 µM and a TGI [21] of over 100 µM. It also gave a GI50 [22] of 88.8 µM, a TGI [22] of over 100 µM and a GI50 [23] of 33.9 µM. For the same compound, the TGI [23] was over 100 µM, the GI50 [24] was over 100 µM and the TGI [24] was over 100 µM. The GI50 [25] was over 100 µM, the TGI [25] was over 100 µM and the GI50 [26] was 16.6 µM. The TGI [26] was 68.3 µM, the GI50 [27] was over 100 µM and the TGI [27] was over 100 µM. For the same compound, the GI50 [28] was over 75.5 µM, the TGI [28] was over 100 µM and the GI50 [29] was 88 µM. For the same compound, the TGI [29] was over 100 µM, the GI50 [30] was 36.5 µM and the TGI [30] was over 100 µM. It also gave a GI50 [31] of over 100 µM, a TGI [31] of over 100 µM and a GI50 [32] of 88.6 µM. The TGI [32] was over 100 µM, the GI50 [33] was 35.7 µM and the TGI [33] was over 100 µM. For the same compound, the GI50 [34] was over 100 µM, the TGI [34] was over 100 µM and the GI50 [35] was 52.9 µM. For the same compound, the TGI [35] was over 100 µM, the GI50 [36] was over 100 µM and the TGI [36] was over 100 µM. The GI50 [37] was over 73.2 µM, the TGI [37] was over 100 µM and the GI50 [38] was over 100 µM. For the same compound, the TGI [38] was over 100 µM, the GI50 [39] was over 100 µM and the TGI [39] was over 100 µM. The GI50 [40] was over 100 µM, the TGI [40] was over 100 µM and the GI50 [41] was over 91.5 µM. It also gave a TGI [41] of over 100 µM, a GI50 [42] of 42.9 µM and a TGI [42] of over 100 µM. It also gave a GI50 [43] of 75.6 µM, a TGI [43] of over 100 µM and a GI50 [44] of over 100 µM. It also gave a TGI [44] of over 100 µM, a GI50 [45] of over 100 µM and a TGI [45] of over 100 µM. The GI50 [46] was over 100 µM, the TGI [46] was over 100 µM and the GI50 [47] was over 100 µM. The TGI [47] was over 100 µM.
